From patent publication EP4471049A1 (Zealand Pharma A/S, priority 2023, dated 2024)
pIC50: −log10 of the molar value. *1 amine or outer side, *2 acyl side, *3 side chain or, on linkers, in order; H or OH if unused. Where a SMILES comes first, the peptide text is derived from it. Bridges are numbered along the chain shown (N, C = ends). [ ]: non-standard residue; d: D form. 2Nal = N[C@@H](Cc1ccc2ccccc2c1)C(=O)O; AEF = NCCOc1ccc(C[C@H](N)C(=O)O)cc1; X1 = O=C(Cc1ccc(CN[*:1])cc1)[*:2]; 3Pal = N[C@@H](Cc1cccnc1)C(=O)O; αMeL = CC(C)C[C@](C)(N)C(=O)O; Dab = NCC[C@H](N)C(=O)O

Key:
human IL-23R = target: T1, human IL-23R (Homo sapiens, UniProt Q5VWK5); experiment: biochemical
T1 sequence (Q5VWK5 22-629): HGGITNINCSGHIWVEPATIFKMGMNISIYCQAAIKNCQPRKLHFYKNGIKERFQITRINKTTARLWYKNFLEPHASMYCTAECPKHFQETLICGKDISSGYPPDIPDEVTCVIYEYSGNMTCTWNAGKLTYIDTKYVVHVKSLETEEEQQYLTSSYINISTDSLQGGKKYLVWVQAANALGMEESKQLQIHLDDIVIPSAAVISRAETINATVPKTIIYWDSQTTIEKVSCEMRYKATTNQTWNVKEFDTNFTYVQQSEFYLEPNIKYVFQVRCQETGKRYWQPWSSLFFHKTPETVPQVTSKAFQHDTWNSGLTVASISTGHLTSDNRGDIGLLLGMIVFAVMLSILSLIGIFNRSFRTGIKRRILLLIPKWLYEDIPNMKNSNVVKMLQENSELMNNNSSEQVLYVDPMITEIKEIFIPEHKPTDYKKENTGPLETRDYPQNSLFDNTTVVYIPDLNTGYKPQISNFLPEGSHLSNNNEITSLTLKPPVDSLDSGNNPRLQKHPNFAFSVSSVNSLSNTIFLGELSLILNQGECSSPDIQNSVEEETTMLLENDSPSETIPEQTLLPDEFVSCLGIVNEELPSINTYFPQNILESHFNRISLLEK
Summary of the method: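 Membranes from HEK293 cells stably expressing Nluc-tagged human IL-23R were incubated 2 h at room temperature with test compound and a fluorophore-labelled tracer. After substrate addition, loss of BRET (TAMRA over luciferase emission) reported tracer displacement. A 4PL fit gave IC50 values.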

[1] = Peptide stability in simulated intestinal fluid (SIF); type: in vitro ADME; conditions: pig, simulated intestinal fluid (SIF) with porcine pancreatin, 37 °C, pH 6.8, porcine pancreatin 10 g/L, 10 µM; for remaining at 4 h, 10 µM: read-out: SIF (% remaining 4 h)
Summary of the method: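 Peptides were incubated at 37 °C with gentle shaking in pH 6.8 potassium phosphate SIF containing porcine pancreatin (10 g/L). Supernatants were analysed by LC-HRMS. Percent remaining at each timepoint, including 4 h, was calculated relative to time zero from absolute peak areas.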

[2] = Peptide stability in simulated gastric fluid (SGF); type: in vitro ADME; conditions: pig, simulated gastric fluid (SGF) with porcine pepsin, 37 °C, pH 1.2, porcine pepsin 3.2 g/L
Method: SGF was prepared by dissolving sodium chloride (0.2 g) in 50 mL of water. A volume of 0.7 mL of 10 M HCl was added to adjust the pH of the solution to 1.2 and the volume made up to 100 mL with water. […] SIF was prepared by dissolving monobasic potassium phosphate (0.68 g) in 50 mL of water and adjusting the pH to 6.8 with 1 M NaOH. The volume was subsequently made up to 100 mL with water. 200 mg porcine pancreatin (P1625, Sigma Aldrich) was gently dissolved into 20 mL preheated (37 °C) solution (10 g/L) immediately prior to the incubation.
The incubation was performed at 37 °C with gentle shaking. […] After the last timepoint, the sampling plate was mixed for 10 min on a shaking table and centrifuged 10 min at 2200 g. 70 µL resulting supernatant was diluted with 150 µL water, mixed and centrifugated before analysis by liquid chromatography high resolution mass spectrometry. […] Percent remaining at each timepoint was calculated relative to timepoint zero based on absolute peak areas.
Compounds with a SGF stability (after 4 h) above 70% are considered highly SGF stable. […] Table 3-4: SGF data

[3] = tested on: porcine pepsin (P7125, Sigma Aldrich); experiment: SGF: sodium chloride, HCl, pH 1.2, with porcine pepsin (3.2 g/L); conditions: 37 °C, up to 4 hours

Row | Compound | not cleaved [3] | further results
1 | CNC(=O)[C@H](Cc1cccnc1)NC(=O)[C@](C)(CO)NC(=O)[C@@H]1CCC(=O)NCc2ccc(cc2)CC(=O)N[C@@H](CO)C(=O)N[C@H]2CCC(=O)NCC[C@H](NC(=O)[C@H](CCC(N)=O)NC(=O)[C@H](Cc3c[nH]c4ccccc34)NC2=O)C(=O)N[C@@H](Cc2ccc(OCCN)cc2)C(=O)N[C@@H](Cc2ccc3ccccc3c2)C(=O)N[C@@](C)(CC(C)C)C(=O)N1 [Compound 39, [4-Aminomethyl-phenylacetyl](1c)*SE(2c)WQ[Dab](2c)[Y(2-aminoethoxy)][2-Nal][2-Me-Leu]E(1c)[2-Me-Ser][3-(3-Pyridyl)-Ala]-[NHMe]] |  | Emax (human IL-23R; read-out: % displacement (hIL-23R binding)): 99%; remaining at 1 h, 10 µM ([1]; 1 h): 100%; remaining at 1 h, 10 µM [2]: 99%
2 | CNC(=O)[C@H](Cc1cccnc1)NC(=O)[C@H](CO)NC(=O)[C@@H]1CCC(=O)NCc2ccc(cc2)CC(=O)N[C@@H](C)C(=O)N[C@H]2CCC(=O)NCC[C@H](NC(=O)[C@H](CCC(N)=O)NC(=O)[C@H](Cc3c[nH]c4ccccc34)NC2=O)C(=O)N[C@@H](Cc2ccc(OCCN)cc2)C(=O)N[C@@H](Cc2ccc3ccccc3c2)C(=O)N[C@@](C)(CC(C)C)C(=O)N1 [Compound 40, [4-Aminomethyl-phenylacetyl](1c)*AE(2c)WQ[Dab](2c)[Y(2-aminoethoxy)][2-Nal][2-Me-Leu]E(1c)S[3-(3-Pyridyl)-Ala]-[NHMe]] ([X1]AEWQ[Dab][AEF][2Nal][αMeL]ES[3Pal]-NHMe; lactam 3-6, N-10) |  | % displacement (hIL-23R binding) (human IL-23R): 100%; pIC50 (human IL-23R): 10.72; remaining at 4 h, 10 µM [1]: 80%; remaining at 1 h, 10 µM [2]: 89%
3 | CNC(=O)[C@H](Cc1cccnc1)NC(=O)[C@H](CCN)NC(=O)[C@@H]1CCC(=O)NCc2ccc(cc2)CC(=O)N[C@@H](C)C(=O)N[C@H]2CCC(=O)NCC[C@H](NC(=O)[C@H](CCC(N)=O)NC(=O)[C@H](Cc3c[nH]c4ccccc34)NC2=O)C(=O)N[C@@H](Cc2c[nH]c3ncccc23)C(=O)N[C@@H](Cc2ccc3ccccc3c2)C(=O)NC(C)(C)C(=O)N1 [Compound 43, [4-Aminomethyl-phenylacetyl](1c)*AE(2c)WQ[Dab](2c)[7-AzaTrp][2-Nal][Aib]E(1c)[Dab][3-(3-Pyridyl)-Ala]-[NHMe]] |  | % displacement (hIL-23R binding) (human IL-23R): 101%; pIC50 (human IL-23R): 10.32; remaining at 4 h, 10 µM [1]: 92%; remaining at 4 h, 10 µM ([2]; 4 h): 98%
4 | H-EC(4a)WLC(5a)YYRNC(5a)NC(4a)M-[NH2] | 99% remaining after 4 h | 
5 | H-GC(1a)TC(2a)WEC(2a)WWLC(1a)S-[NH2] | 94% remaining after 4 h | 
6 | [4-Aminomethyl-phenylacetyl](1c)*SE(2c)WQ[Dab](2c)[Y(2-aminoethoxy)][2-Nal][2-Me-Leu]E(1c)H[3-(3-Pyridyl)-Ala] | 95% remaining after 4 h | 
7 | [4-Aminomethyl-phenylacetyl](1c)*SE(2c)WQ[Dab](2c)[Y(2-aminoethoxy)][2-Nal][2-Me-Leu]E(1c)S[3-(3-Pyridyl)-Ala] | 99% remaining after 4 h | 
8 | [4-Aminomethyl-phenylacetyl](1c)*SE(2c)WQ[Dab](2c)[Y(2-aminoethoxy)][2-Nal][2-Me-Leu]E(1c)[2-Me-Ser][3-(3-Pyridyl)-Ala] | 96% remaining after 4 h | 
9 | [4-Aminomethyl-phenylacetyl](1c)*SE(2c)WQ[Dab](2c)[Y(2-aminoethoxy)][2-Nal][2-Me-Leu]E(1c)[Dab]-[NH-(4-(pyridin-3-yl)butanyl)] | 108% remaining after 4 h | 
10 | [4-Aminomethyl-phenylacetyl](1c)*SE(2c)WQ[Dab](2c)[Y(2-aminoethoxy)][2-Nal][2-Me-Leu]E(1c)[Dab][N-Me-3-(3-Pyridyl)-Ala]-[NH2] | 103% remaining after 4 h | 
11 | [4-Aminomethyl-phenylacetyl](1c)*SE(2c)WQ[Dab](2c)[Y(2-aminoethoxy)][2-Nal][2-Me-Leu]E(1c)[Dab][{d}3-(3-Pyridyl)-Ala]-[NH2] | 105% remaining after 4 h | 
12 | [4-Aminomethyl-phenylacetyl](1c)*SE(2c)WQ[Dab](2c)[Y(2-aminoethoxy)][2-Nal][2-Me-Leu]E(1c)[Nle][3-(3-Pyridyl)-Ala] | 90% remaining after 4 h | 
13 | [4-Aminomethyl-phenylacetyl](1c)*SE(2c)WQ[Dab](2c)[Y(2-aminoethoxy)][2-Nal][2-Me-Leu]E(1c)[hSer][3-(3-Pyridyl)-Ala] | 103% remaining after 4 h | 
14 | [4-Aminomethyl-phenylacetyl](1c)*SE(2c)WQ[Dab](2c)[Y(2-aminoethoxy)][2-Nal][2-Me-Leu]E(1c)[{d}S][3-(3-Pyridyl)-Ala] | 91% remaining after 4 h | 
15 | [Ac]-[Abu](16i)QTWQC(16i)[Y(2-aminoethoxy)]W[2-Me-Lys]ENG-[NH2] | 100% remaining after 4 h | 

Continued, in another order:

Row | not cleaved [3] | Compound | further results
16 | 101% remaining after 4 h | [4-Aminomethyl-phenylacetyl](1c)*FE(2c)WQ[Dab](2c)[Y(2-aminoethoxy)][2-Nal][2-Me-Leu]E(1c)[Dab][3-(3-Pyridyl)-Ala] | 
17 | 93% remaining after 4 h | [4-Aminomethyl-phenylacetyl](1c)*SE(2c)WQ[Dab](2c)[Y(2-aminoethoxy)][2-Nal][2-Me-Leu]E(1c)Q[3-(3-Pyridyl)-Ala] | 
18 | 93% remaining after 4 h | [4-Aminomethyl-phenylacetyl](1c)*SE(2c)WQ[Dab](2c)[Y(2-aminoethoxy)][2-Nal][2-Me-Leu]E(1c)[Dab]H[3-(3-Pyridyl)-Ala]-[NH2] | 
19 | 102% remaining after 4 h | [4-Aminomethyl-phenylacetyl](1c)*SE(2c)WQ[Dab](2c)[Y(2-aminoethoxy)][2-Nal][2-Me-Leu]E(1c)[Ser(OMe)][3-(3-Pyridyl)-Ala] | 
20 | 90% remaining after 4 h | [4-Aminomethyl-phenylacetyl](1c)*SE(2c)W[K(Ac)][Dab](2c)[Y(2-aminoethoxy)][2-Nal][2-Me-Leu]E(1c)[Dab][3-(3-Pyridyl)-Ala] | 
21 | 96% remaining after 4 h | [4-Aminomethyl-phenylacetyl](1c)*SE(2c)W[Q(pyrrolidin)][Dab](2c)[Y(2-aminoethoxy)][2-Nal][2-Me-Leu]E(1c)[Dab][3-(3-Pyridyl)-Ala] | 
